Tested on: NOMO1
Assay: cell viability relative to DMSO control; higher = less cytotoxic
Settings: 48 h
Procedure, shortened: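 NOMO1 or SEM cells were plated at 500 cells/well and P12-Ichikawa cells at 1000 cells/well in 1536-well plates (5 μl), after each leukemia line had been adapted for at least four passages in each medium. Pin dosing delivered library compounds in DMSO at 11 threefold concentrations, 47 μM to 0.79 nM. CellTiter-Glo One luminescence was read after 48 h at 37°C. Viability is reported as a per-plate percentage of DMSO wells, with cell-free wells as background.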

[1] = HPLM + 10% dialyzed FBS, 0.000781 µM
[2] = HPLM + 10% dialyzed FBS, 0.00234 µM
[3] = HPLM + 10% dialyzed FBS, 0.00702 µM
[4] = HPLM + 10% dialyzed FBS, 0.0211 µM
[5] = HPLM + 10% dialyzed FBS, 0.0632 µM
[6] = HPLM + 10% dialyzed FBS, 0.19 µM
[7] = HPLM + 10% dialyzed FBS, 0.569 µM
[8] = HPLM + 10% dialyzed FBS, 1.71 µM
[9] = HPLM + 10% dialyzed FBS, 5.12 µM
[10] = HPLM + 10% dialyzed FBS, 15.4 µM
[11] = HPLM + 10% dialyzed FBS, 46.1 µM
[12] = RPMI 5 mM glucose + 10% FBS, 0.000781 µM
[13] = RPMI 5 mM glucose + 10% FBS, 0.00234 µM
[14] = RPMI 5 mM glucose + 10% FBS, 0.00702 µM
[15] = RPMI 5 mM glucose + 10% FBS, 0.0211 µM
[16] = RPMI 5 mM glucose + 10% FBS, 0.0632 µM
[17] = RPMI 5 mM glucose + 10% FBS, 0.19 µM
[18] = RPMI 5 mM glucose + 10% FBS, 0.569 µM
[19] = RPMI 5 mM glucose + 10% FBS, 1.71 µM
[20] = RPMI 5 mM glucose + 10% FBS, 5.12 µM
[21] = RPMI 5 mM glucose + 10% FBS, 15.4 µM
[22] = RPMI 5 mM glucose + 10% FBS, 46.1 µM
[23] = RPMI 5 mM glucose + 10% dialyzed FBS, 0.000781 µM
[24] = RPMI 5 mM glucose + 10% dialyzed FBS, 0.00234 µM
[25] = RPMI 5 mM glucose + 10% dialyzed FBS, 0.00702 µM
[26] = RPMI 5 mM glucose + 10% dialyzed FBS, 0.0211 µM
[27] = RPMI 5 mM glucose + 10% dialyzed FBS, 0.0632 µM
[28] = RPMI 5 mM glucose + 10% dialyzed FBS, 0.19 µM
[29] = RPMI 5 mM glucose + 10% dialyzed FBS, 0.569 µM
[30] = RPMI 5 mM glucose + 10% dialyzed FBS, 1.71 µM
[31] = RPMI 5 mM glucose + 10% dialyzed FBS, 5.12 µM
[32] = RPMI 5 mM glucose + 10% dialyzed FBS, 15.4 µM
[33] = RPMI 5 mM glucose + 10% dialyzed FBS, 46.1 µM

COc1cc2c(Nc3ccc(Cl)c(Cl)c3F)ncnc2cc1OC[C@@H]1C[C@@H]2CN(C)C[C@@H]2C1
cell viability [1]: 109%
cell viability [2]: 113%
cell viability [3]: 116%
cell viability [4]: 119%
cell viability [5]: 115%
cell viability [6]: 88.4%
cell viability [7]: 81.2%
cell viability [8]: 73%
cell viability [9]: 50.7%
cell viability [10]: 53.4%
cell viability [11]: 20.7%
cell viability [12]: 114%
cell viability [13]: 121%
cell viability [14]: 131%
cell viability [15]: 130%
cell viability [16]: 127%
cell viability [17]: 126%
cell viability [18]: 119%
cell viability [19]: 117%
cell viability [20]: 87.9%
cell viability [21]: 101%
cell viability [22]: 22.5%
cell viability [23]: 101%
cell viability [24]: 124%
cell viability [25]: 125%
cell viability [26]: 118%
cell viability [27]: 124%
cell viability [28]: 123%
cell viability [29]: 112%
cell viability [30]: 98.3%
cell viability [31]: 79.1%
cell viability [32]: 83.9%
cell viability [33]: 24.3%

CC\1=C(C(=O)N(\C=C1)C2=CC=C(C=C2)C3=NC=CO3)/C4=CC5=CN=C(N)N=C5C=C4
cell viability [1]: 98.8%
cell viability [2]: 107%
cell viability [3]: 126%
cell viability [4]: 112%
cell viability [5]: 108%
cell viability [6]: 117%
cell viability [7]: 122%
cell viability [8]: 122%
cell viability [9]: 123%
cell viability [10]: 108%
cell viability [11]: 94.9%
cell viability [12]: 97%
cell viability [13]: 103%
cell viability [14]: 96.1%
cell viability [15]: 104%
cell viability [16]: 112%
cell viability [17]: 116%
cell viability [18]: 114%
cell viability [19]: 107%
cell viability [20]: 124%
cell viability [21]: 113%
cell viability [22]: 100%
cell viability [23]: 99.1%
cell viability [24]: 89.6%
cell viability [25]: 103%
cell viability [26]: 119%
cell viability [27]: 123%
cell viability [28]: 107%
cell viability [29]: 108%
cell viability [30]: 101%
cell viability [31]: 107%
cell viability [32]: 117%
cell viability [33]: 90%

CCOC(=O)[C@H](CCc1ccccc1)N[C@@H](C)C(=O)N1CCC[C@H]1C(=O)O
cell viability [1]: 128%
cell viability [2]: 105%
cell viability [3]: 117%
cell viability [4]: 134%
cell viability [5]: 125%
cell viability [6]: 119%
cell viability [7]: 108%
cell viability [8]: 119%
cell viability [9]: 110%
cell viability [10]: 99.8%
cell viability [11]: 102%
cell viability [12]: 114%
cell viability [13]: 105%
cell viability [14]: 111%
cell viability [15]: 102%
cell viability [16]: 102%
cell viability [17]: 105%
cell viability [18]: 97.7%
cell viability [19]: 103%
cell viability [20]: 98.7%
cell viability [21]: 93.3%
cell viability [22]: 103%
cell viability [23]: 97.9%
cell viability [24]: 109%
cell viability [25]: 116%
cell viability [26]: 122%
cell viability [27]: 116%
cell viability [28]: 123%
cell viability [29]: 112%
cell viability [30]: 110%
cell viability [31]: 103%
cell viability [32]: 96%
cell viability [33]: 99.5%

OC[C@H]1O[C@H]([C@@H](F)[C@@H]1O)N2\C=C/C(=O)NC2=O
cell viability [1]: 99.1%
cell viability [2]: 106%
cell viability [3]: 106%
cell viability [4]: 97.2%
cell viability [5]: 116%
cell viability [6]: 108%
cell viability [7]: 108%
cell viability [8]: 107%
cell viability [9]: 109%
cell viability [10]: 97.9%
cell viability [11]: 90.2%
cell viability [12]: 85.9%
cell viability [13]: 40.6%
cell viability [14]: 97%
cell viability [15]: 92.9%
cell viability [16]: 99.7%
cell viability [17]: 104%
cell viability [18]: 98.2%
cell viability [19]: 100%
cell viability [20]: 84.8%
cell viability [21]: 94.3%
cell viability [22]: 82.8%
cell viability [23]: 105%
cell viability [24]: 74.5%
cell viability [25]: 97%
cell viability [26]: 102%
cell viability [27]: 102%
cell viability [28]: 99.4%
cell viability [29]: 105%
cell viability [30]: 99.5%
cell viability [31]: 84%
cell viability [32]: 104%
cell viability [33]: 95.2%

CC(=O)NC(CS)C(=O)O (stereo not drawn)
cell viability [1]: 81.1%
cell viability [2]: 93.2%
cell viability [3]: 104%
cell viability [4]: 82.7%
cell viability [5]: 96.9%
cell viability [6]: 81.6%
cell viability [7]: 78.8%
cell viability [8]: 97%
cell viability [9]: 78.2%
cell viability [10]: 26.7%
cell viability [11]: 27.5%
cell viability [12]: 72.7%
cell viability [13]: 81.1%
cell viability [14]: 75.3%
cell viability [15]: 74.4%
cell viability [16]: 75.8%
cell viability [17]: 75.2%
cell viability [18]: 82.7%
cell viability [19]: 79.5%
cell viability [20]: 84.5%
cell viability [21]: 30.5%
cell viability [22]: 70.4%
cell viability [23]: 81.1%
cell viability [24]: 77.8%
cell viability [25]: 86.7%
cell viability [26]: 88.9%
cell viability [27]: 88.1%
cell viability [28]: 75.8%
cell viability [29]: 85.6%
cell viability [30]: 80.1%
cell viability [31]: 90.7%
cell viability [32]: 27.8%
cell viability [33]: 75.9%

Cn1cc(-c2ccc3nnc(C(F)(F)c4ccc5ncccc5c4)n3n2)cn1
cell viability [1]: 115%
cell viability [2]: 99.1%
cell viability [3]: 97.5%
cell viability [4]: 107%
cell viability [5]: 101%
cell viability [6]: 106%
cell viability [7]: 105%
cell viability [8]: 101%
cell viability [9]: 95.4%
cell viability [10]: 103%
cell viability [11]: 69.3%
cell viability [12]: 110%
cell viability [13]: 106%
cell viability [14]: 135%
cell viability [15]: 109%
cell viability [16]: 107%
cell viability [17]: 106%
cell viability [18]: 99.6%
cell viability [19]: 94.9%
cell viability [20]: 106%
cell viability [21]: 96.6%
cell viability [22]: 87.2%
cell viability [23]: 87.3%
cell viability [24]: 98.4%
cell viability [25]: 111%
cell viability [26]: 97.8%
cell viability [27]: 99.2%
cell viability [28]: 98.6%
cell viability [29]: 119%
cell viability [30]: 108%
cell viability [31]: 99.5%
cell viability [32]: 96.2%
cell viability [33]: 81.3%

N=C(N)NC(=O)c1nc(Cl)c(N)nc1N
cell viability [1]: 110%
cell viability [2]: 114%
cell viability [3]: 132%
cell viability [4]: 133%
cell viability [5]: 134%
cell viability [6]: 130%
cell viability [7]: 133%
cell viability [8]: 54.1%
cell viability [9]: 35.8%
cell viability [10]: 35%
cell viability [11]: 36.9%
cell viability [23]: 112%
cell viability [24]: 134%
cell viability [25]: 123%
cell viability [26]: 134%
cell viability [27]: 133%
cell viability [28]: 129%
cell viability [29]: 136%
cell viability [30]: 72.5%
cell viability [31]: 33.3%
cell viability [32]: 29.2%
cell viability [33]: 29.1%

O=C1Nc2ccc(Cl)cc2[C@@](C#CC2CC2)(C(F)(F)F)O1
cell viability [1]: 74.7%
cell viability [2]: 97%
cell viability [3]: 76.4%
cell viability [4]: 85.9%
cell viability [5]: 97%
cell viability [6]: 84.8%
cell viability [7]: 80.2%
cell viability [8]: 81.4%
cell viability [9]: 59%
cell viability [10]: 57.2%
cell viability [11]: 79.8%
cell viability [12]: 73.7%
cell viability [13]: 78.2%
cell viability [14]: 77.1%
cell viability [15]: 80.7%
cell viability [16]: 88.7%
cell viability [17]: 80.8%
cell viability [18]: 79.3%
cell viability [19]: 80.4%
cell viability [20]: 81.3%
cell viability [21]: 77.3%
cell viability [22]: 12.5%
cell viability [23]: 70.1%
cell viability [24]: 90.1%
cell viability [25]: 92.3%
cell viability [26]: 101%
cell viability [27]: 97.9%
cell viability [28]: 95.9%
cell viability [29]: 95.6%
cell viability [30]: 93.2%
cell viability [31]: 86.7%
cell viability [32]: 95.7%
cell viability [33]: 78.3%

Source: the supplement of paper PMC11451515
